Assay results: patent US7754720B2, “Pyridazine compound and use thereof” (priority 2006, dated 2010)
≈ marks a conversion by molar mass, not a printed value. Like-named read-outs stand apart in the source and are kept apart here.

Columns and labels:
[1] = system: HCV genotype 1b (Con-1/lucneo) replicon; assay: microbe, parasite or virus in culture; format: cell-based; conditions: Hepatitis C virus
Experimental: (§1) HCV genotype 1b (Con-1/lucneo) and 1a (H77/neo) replicon cells were incubated with serial dilutions of compound (1) 2′C-methyl adenosine (2′CMeA) or IFNα for 3 days in the absence or presence of 40 mg/mL human serum albumin (HSA).

[2] = system: HCV genotype 1a (H77/neo) replicon; assay: HCV genotype 1a (H77/neo) replicon, quantitative real-time PCR assay; format: cell-based; conditions: Hepatitis C virus, 72 h, 3 days
Experimental: as §1

[3] = system: HCV 2a subgenomic replicon; assay: HCV genotype 2a subgenomic replicon in Huh-7 cells, NS3 protease activity by time-resolved fluorescence; format: cell-based, hepatitis C virus; conditions: compared with genotypes 1a and 1b
Experimental: (§2) The antiviral activity of compound (1) against HCV genotype 2a was tested in cells chronically infected with the genotype 2a virus as well as in cells replicating a subgenomic 2a replicon. Huh-7 cells containing chronically replicating HCV genotype 2a (J6/JFH-Rluc) virus or subgenomic replicons were cultured with compound (1) or 2′CMeA for 3 days in the absence of human serum albumin. After cultivation, the amount of luciferase in 2a-virus containing cells and HCV NS3 protease activity in the 2a replicon-containing cells was determined using Promega's luciferase assay and a novel time-resolved fluorescence assay, respectively.

[4] = system: HCV genotype 2a (J6/JFH-Rluc) virus; assay: Huh-7 cells chronically infected with HCV genotype 2a reporter virus, luciferase assay; format: cell-based; conditions: Hepatitis C virus, Huh-7, 72 h, read-out: EC50, HCV-2a chronically infected cell culture model
Experimental: as §2

[5] = Cytotoxicity, CellTiter-Glo Luminescence Cell Viability assay, Huh-7 lucneo; conditions: human, Huh-7 lucneo cells (HCV replicon-containing)
Experimental: (§3) Compound (1) was evaluated for its cytotoxicity in a variety of cell types including HCV replicon-containing cell lines (Huh-7, SL3 and MH4) and non-replicon-containing cell lines (HepG2, MT4), using a CellTiter-Glo Luminescence Cell Viability assay (Promega).

[6] = Cytotoxicity, CellTiter-Glo Luminescence Cell Viability assay, SL3; conditions: human, SL3 cells (HCV replicon-containing)
Experimental: as §3

[7] = Cytotoxicity, CellTiter-Glo Luminescence Cell Viability assay, MH4; conditions: mouse, MH4 cells (HCV replicon-containing)
Experimental: as §3

in vitro [8] = conditions: human
Experimental: as §3

in vitro [9] = conditions: human; remark: listed apart in the source
Experimental: as §3

HCV replicon cells = assay: In vitro combination study with IFN-α in replicon cells (MacSynergy); format: cell-based, hepatitis C virus; conditions: MacSynergy analysis
Experimental: Pegylated interteron-α (PEG-IFN-α), in combination with ribavirin, represents the current standard of care for HCV-infected patients. In vitro combination studies of compound (1) and IFN-α were performed in replicon cells. Data was analyzed using the MacSynergy template developed by Prichard and Shipman.

HCV replicon = assay: Anti-HCV replicon activity compared with prior art compound of formula (4); format: cell-based, hepatitis C virus
Text: The anti-HCV replicon activity of compound (1) was compared to that of a prior art (WO 05/063744) compound, the compound of formula (4)

[10] = Intrinsic and pH solubility profile; format: physicochemical
physchem = format: physicochemical; conditions: pH 6.4, fassif
pKa = format: physicochemical; conditions: product of example 1b
log P = format: physicochemical; conditions: product of example 1b
[11] = Phase-1 first-in-human trial, pharmacokinetics; conditions: in vivo
Text: (§4) A randomized, double-blind, placebo controlled trial was designed to evaluate the safety/tolerability, phamacokinetics and antiviral activity of single (in Part A) and multiple (in Part B) doses of Compound (1) (oleic acid solution, above) in subjects chronically infected with HCV genotype 1 (GT-1) without decompensated cirrhosis.
(§5) In completed Part A, five successive cohorts of 6 subjects were randomized (5:1) to receive single ascending doses of Compound 1 (40, 120, 240, 240-with food, or 480 mg) or placebo. In ongoing Part B, four successive cohorts of 12 subjects are randomized (10:2) to receive multiple ascending doses of Compound 1 (40 mg BID, 120 mg BID, 240 mg QD, 240 mg BID) or placebo, over 8 days.

[12] = in vivo
Text: as §4, §5

## Fc1ccccc1-c1nc2ccn(Cc3ccc(-c4ccc(C(F)(F)F)cc4C(F)(F)F)nn3)cc-2n1 [Compound (1), 5-({6-[2,4-bis(trifluoromethyl)phenyl]pyridazin-3-yl}methyl)-2-(2-fluorophenyl)-5H-imidazo[4,5-c]pyridine]
[1]; 72 h, read-out: EC50 HCV 1b-lucneo 40 mg/mL HSA, 3 days, presence of 40 mg/mL human serum albumin
  EC50: 11 nM
[1]; 72 h, 3 days, absence of human serum albumin, read-out: EC50 HCV 1b-lucneo (subgenomic replicon)
  EC50: 0.6 nM
[1]; Huh-7, read-out: EC50, Huh-7 cells replicating an HCV-1b subgenomic replicon
  EC50: 0.6 nM
[1]; read-out: EC50 in HCV-1b and HCV-1a replicons
  EC50: 0.62 to 3.6 nM
[2]
  EC50: 3.6 nM
[3]
  activity against genotype 2a: substantially less active
[4]
  EC50: 2900 nM
[5]
  CC50: > 50000 nM
[6]
  CC50: > 50000 nM
[7]
  CC50: > 50000 nM
In vitro [8]
  CC50: > 50000 nM
In vitro [9]
  CC50: > 50000 nM
HCV replicon cells
  interaction with IFN-α in combination: additive interaction
HCV replicon
  potency relative to the compound of formula (4): about 330 times
[10]; geometric mean (3 lots), pH 7.3
  pH solubility profile at pH 7.3: 0.7 micrograms/ml
[10]; product of example 1b
  solubility: 0.7 µg/mL (≈ 1.35 µM)
physchem
  solubility: 19.1 µg/mL (≈ 36.9 µM)
pKa
  pKa: 5.8
Log P
  logP: 2.8
[11]
  half-life: 10 to 15 h
  increase of systemic exposure with a high fat meal: approximately 2 fold
[12]; human
  Grade 3 or 4 treatment emergent laboratory abnormalities: no Grade 3 or 4 treatment emergent laboratory abnormalities
[12]
  most common adverse event: headache
  serious or treatment-limiting adverse events: no serious or treatment-limiting adverse events
  severity of adverse events: All AEs were mild in severity, with the exception of one moderate headache
  tolerability of single doses: well tolerated
